Results as given in ChEMBL document CHEMBL1201862, “PubChem BioAssay data set” (2004).
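Five concentrations, 48 hours, 96-well plates. The concentration for 50% growth inhibition is given as GI50.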 The source made the active and inactive calls. No stated cut-off is given here; in the data, active = GI50 up to about 1.1 µM and inactive = higher.

Key:
Experiment in all cases: NCI anticancer screen, dose series, 48 h
786-0 = system: 786-0
A498 = system: A498
A549 = system: A549
BT-549 = system: BT-549
HCC 2998 = system: HCC 2998
HOP-62 = system: HOP-62
HT-29 = system: HT-29
KM12 = system: KM12
LOX IMVI = system: LOX IMVI
MCF7 = system: MCF7
NCI-H226 = system: NCI-H226
OVCAR-4 = system: OVCAR-4
PC-3 = system: PC-3
SK-MEL-2 = system: SK-MEL-2
SK-MEL-5 = system: SK-MEL-5
SK-OV-3 = system: SK-OV-3
SN12C = system: SN12C
SNB-19 = system: SNB-19
SW-620 = system: SW-620
U-251 = system: U-251

SMILES | GI50 (786-0) | GI50 (A498) | GI50 (A549) | GI50 (BT-549) | GI50 (HCC 2998) | GI50 (HOP-62) | GI50 (HT-29) | GI50 (KM12) | GI50 (LOX IMVI) | GI50 (MCF7) | GI50 (NCI-H226) | GI50 (OVCAR-4) | GI50 (PC-3) | GI50 (SK-MEL-2) | GI50 (SK-MEL-5) | GI50 (SK-OV-3) | GI50 (SN12C) | GI50 (SNB-19) | GI50 (SW-620) | GI50 (U-251)
Cc1cc(C)c2c(=N)c3ccccc3n(CCCCCCCCn3c4ccccc4c(=N)c4c(C)cc(C)nc43)c2n1 | 0.931 µM (active) | 1.59 µM (inactive) | 1.38 µM (inactive) | 1.85 µM (inactive) | 0.631 µM (active) | 1.23 µM (inactive) | 0.224 µM (active) | 0.358 µM (active) | 0.515 µM (active) | 0.586 µM (active) | 1.55 µM (inactive) | 0.627 µM (active) | 1.38 µM (inactive) | 1.75 µM (inactive) | 1.82 µM (inactive) | 1.73 µM (inactive) | 1.59 µM (inactive) | 0.282 µM (active) | 0.238 µM (active) | 0.553 µM (active)
CC(C)(C)C1CCC2c3c([nH]c4ccccc34)C3C(=O)N(c4ccc5c(c4)C(=O)c4ccccc4C5=O)C(=O)C3C2C1 (stereo not given) | > 100 µM (inactive) | > 100 µM (inactive) | > 100 µM (inactive) | > 100 µM (inactive) | > 100 µM (inactive) | > 100 µM (inactive) | > 100 µM (inactive) | > 100 µM (inactive) | > 100 µM (inactive) | > 100 µM (inactive) | > 100 µM (inactive) | > 100 µM (inactive) | > 100 µM (inactive) | > 100 µM (inactive) | > 100 µM (inactive) | > 100 µM (inactive) | > 100 µM (inactive) | > 100 µM (inactive) | > 100 µM (inactive) | > 100 µM (inactive)
COC(=O)C1=C(C(=O)Nc2cccnc2Cl)N(c2ccc(OC)cc2[N+](=O)[O-])C(c2ccc(C)cc2)=CC1c1ccc(OC)cc1OC (stereo not given) | 12 µM (inactive) | 16.7 µM (inactive) | 6.3 µM (inactive) | 8.85 µM (inactive) | 8.61 µM (inactive) | 23.3 µM (inactive) | 3.89 µM (inactive) | 2.92 µM (inactive) | 2.82 µM (inactive) | 2.15 µM (inactive) | 12.9 µM (inactive) | 33.6 µM (inactive) | 27.5 µM (inactive) | 17.9 µM (inactive) | 10 µM (inactive) | 23.7 µM (inactive) | 15.4 µM (inactive) | 32.1 µM (inactive) | 4.66 µM (inactive) | 6.41 µM (inactive)
O=c1[nH]c2nccn2c(Cl)c1Br | 86.9 µM (inactive) | 76 µM (inactive) | > 100 µM (inactive) | 18.7 µM (inactive) | 21.1 µM (inactive) | > 100 µM (inactive) | 23.3 µM (inactive) | 95.1 µM (inactive) | 18 µM (inactive) | 42.6 µM (inactive) | 35.2 µM (inactive) | 18 µM (inactive) | 50.2 µM (inactive) | 2.52 µM (inactive) | 25.2 µM (inactive) | 29.6 µM (inactive) | 26.2 µM (inactive) | 27.7 µM (inactive) | 26.6 µM (inactive) | 17.3 µM (inactive)
Cc1ccc(N2C(=O)C3c4[nH]c5ccccc5c4C4CCC(C(C)(C)C)CC4C3C2=O)cc1 (stereo not given) | 5.06 µM (inactive) | 16.2 µM (inactive) | 10.1 µM (inactive) | 19.2 µM (inactive) | 14.8 µM (inactive) | 5.38 µM (inactive) | 13 µM (inactive) | 17.5 µM (inactive) | 11.6 µM (inactive) | 12.6 µM (inactive) | 17.4 µM (inactive) | 7.21 µM (inactive) | 13 µM (inactive) | 21.3 µM (inactive) | 16.8 µM (inactive) | 14.9 µM (inactive) | 10.3 µM (inactive) | 8.75 µM (inactive) | > 26.1 µM (inactive) | 4.49 µM (inactive)
OC(CCN1CCN(CCOC(c2ccccc2)c2ccccc2)CC1)c1ccc(Br)cc1 (stereo not given) | 10.7 µM (inactive) | 3.72 µM (inactive) | 14.9 µM (inactive) | 13.3 µM (inactive) | 1.73 µM (inactive) | 15.1 µM (inactive) | 4.27 µM (inactive) | 11.4 µM (inactive) | 10 µM (inactive) | 13.3 µM (inactive) | 15 µM (inactive) | 12.6 µM (inactive) | 10.9 µM (inactive) | 12.3 µM (inactive) | 3.53 µM (inactive) | 13.1 µM (inactive) | 11.8 µM (inactive) | 15.8 µM (inactive) | 16.8 µM (inactive) | 11.9 µM (inactive)
COc1ccc2c(c1)CCN1CCCc3ccc(OC)cc3C21 (stereo not given) | 49.1 µM (inactive) | 84.5 µM (inactive) | 75 µM (inactive) | 34 µM (inactive) | 37.9 µM (inactive) | 67.9 µM (inactive) | 31.7 µM (inactive) | 60.4 µM (inactive) | 41.2 µM (inactive) | 31.3 µM (inactive) | 38.5 µM (inactive) | > 100 µM (inactive) | 28.5 µM (inactive) | 52.1 µM (inactive) | 39.6 µM (inactive) | 77.4 µM (inactive) | 50 µM (inactive) | > 100 µM (inactive) | 76.7 µM (inactive) | 58.9 µM (inactive)
CC(C)C(=O)/C=C/c1ccc(Cl)cc1Cl | 14.2 µM (inactive) | 17.9 µM (inactive) | 14.8 µM (inactive) | 4.41 µM (inactive) | 16.4 µM (inactive) | 18.5 µM (inactive) | 3.99 µM (inactive) | 4.06 µM (inactive) | 3.55 µM (inactive) | 3.62 µM (inactive) | 13.2 µM (inactive) | 6.75 µM (inactive) | 18.7 µM (inactive) | 14.2 µM (inactive) | 14.5 µM (inactive) | 19.6 µM (inactive) | 10.7 µM (inactive) | 15.8 µM (inactive) | 3.1 µM (inactive) | 12.6 µM (inactive)
CN(CCN1CCCC1)C1CCc2cc(Cl)c(Cl)cc2C1 (stereo not given) | 14.7 µM (inactive) | 13.2 µM (inactive) | 16.6 µM (inactive) | 14.9 µM (inactive) | 5.47 µM (inactive) | 17.4 µM (inactive) | 10.4 µM (inactive) | 20.3 µM (inactive) | 15.1 µM (inactive) | 14.8 µM (inactive) | 16.2 µM (inactive) | 21.4 µM (inactive) | 20 µM (inactive) | 17.9 µM (inactive) | 11.1 µM (inactive) | 17.5 µM (inactive) | 15.5 µM (inactive) | 19.7 µM (inactive) | 23.9 µM (inactive) | 16.1 µM (inactive)
C/C=C(/C)C(=O)O[C@H]1[C@H](O)CC(c2ccc3c(c2O)C(=O)C2=C(O)C4(OC)C(=O)C(C(N)=O)=C(O)[C@H](CC(=O)c5ccccc5O)C4CC2[C@@]3(C)OC)O[C@@H]1C (stereo not given in full) | 0.00479 µM (active) | 0.0422 µM (active) | 0.00311 µM (active) | 0.0187 µM (active) | 0.0326 µM (active) | 0.00331 µM (active) | 0.00246 µM (active) | 0.00647 µM (active) | 0.0035 µM (active) | 0.00363 µM (active) | 0.0202 µM (active) | 0.0849 µM (active) | 0.00637 µM (active) | 0.00621 µM (active) | 0.001 µM (active) | 0.00446 µM (active) | 0.00297 µM (active) | 0.00433 µM (active) | 0.00408 µM (active) | 0.00256 µM (active)
CC(Nc1ccc(Cl)cc1)c1ccncc1 (stereo not given) | > 100 µM (inactive) | 81.7 µM (inactive) | > 100 µM (inactive) | > 100 µM (inactive) | > 100 µM (inactive) | > 100 µM (inactive) | 89.5 µM (inactive) | 22.3 µM (inactive) | > 100 µM (inactive) | > 100 µM (inactive) | > 100 µM (inactive) | > 100 µM (inactive) | 64.1 µM (inactive) | > 100 µM (inactive) | 36.6 µM (inactive) | 0.0315 µM (active) | > 100 µM (inactive) | > 100 µM (inactive) | > 100 µM (inactive) | > 100 µM (inactive)
O=C(O)c1ccccc1C1CCCc2c1[nH]c1ccccc21 (stereo not given) | > 100 µM (inactive) | 30.2 µM (inactive) | 79.3 µM (inactive) | 83.6 µM (inactive) | > 100 µM (inactive) | > 100 µM (inactive) | 61.4 µM (inactive) | 36.7 µM (inactive) | 44.2 µM (inactive) | 30.1 µM (inactive) | > 100 µM (inactive) | 41.3 µM (inactive) | 46.9 µM (inactive) | 91.6 µM (inactive) | 36.5 µM (inactive) | > 100 µM (inactive) | > 100 µM (inactive) | > 100 µM (inactive) | 57.1 µM (inactive) | 81.8 µM (inactive)
CCNC(=O)/C(=C/c1ccc(OC)cc1)c1cc(OC)c(OC)c(OC)c1 | 8.85 µM (inactive) | 14.9 µM (inactive) | 7.62 µM (inactive) | 14.4 µM (inactive) | 4.68 µM (inactive) | 10.9 µM (inactive) | 3.41 µM (inactive) | 4.23 µM (inactive) | 8.39 µM (inactive) | 4.84 µM (inactive) | 40.7 µM (inactive) | 68.2 µM (inactive) | 3.52 µM (inactive) | 7.57 µM (inactive) | 3.71 µM (inactive) | 6.85 µM (inactive) | 20.7 µM (inactive) | 12.5 µM (inactive) | 4.52 µM (inactive) | 7.21 µM (inactive)
